Data on 19 compounds can be found in US8492559B2, “Substituted indole compounds” (Gruenenthal GmbH, priority 2009, dated 2013).

Molecules are shown by their SMILES.

The target in one assay is T1, B1R receptor of the rat (rB1R) (Rattus norvegicus, UniProt P97583).
T1 construct: expressed in transfected cells; host or cells: CHO K1 cells
T1 sequence (P97583 1-337): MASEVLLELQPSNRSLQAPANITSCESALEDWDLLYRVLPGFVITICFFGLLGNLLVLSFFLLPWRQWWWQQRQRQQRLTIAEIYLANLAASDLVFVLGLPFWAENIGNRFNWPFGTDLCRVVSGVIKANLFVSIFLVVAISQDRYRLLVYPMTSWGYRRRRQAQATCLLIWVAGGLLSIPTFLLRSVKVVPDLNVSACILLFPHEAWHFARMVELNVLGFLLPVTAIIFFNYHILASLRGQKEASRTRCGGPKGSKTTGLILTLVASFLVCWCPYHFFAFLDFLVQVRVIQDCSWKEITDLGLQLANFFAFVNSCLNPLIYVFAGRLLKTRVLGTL
Kind of assay: Functional investigation on the bradykinin 1 receptor (B1R), FLIPR Ca2+ assay, rB1R cells. The assay is classed as cell-based. The following applies: 10 μM test substance; CHO K1 cells with rat B1R; agonist Des-Arg9 bradykinin; % of maximum achievable inhibition. As for the experimental part:
The indication in % activation is based on the Ca^2+ signal after addition of Lys-Des-[…] bradykinin (0.5 nM) or Des-[…] bradykinin (100 nM). Antagonists lead to a suppression of the Ca^2+ influx following administration of the agonist. The % inhibition in comparison with the maximum achievable inhibition is indicated. […] According to this assay, the Ca^2+ inflow through the channel is quantified with the aid of a Ca^2+-sensitive dye (Fluo-4 type, Molecular Probes Europe BV, Leiden, Netherlands) in a fluorescent imaging plate reader (FLIPR, Molecular Devices, Sunnyvale, USA). […] For functional investigations these cells are plated-out onto black 96-well plates with a clear base (BD Biosciences, Heidelberg, Germany or Greiner, Frickenhausen, Germany) in a density of 20,000-35,000 cells/well. Overnight the cells are incubated at 37° C. and 5% CO2 in culture medium (hB1R cells: Ham's Nutrient Mixture F12, Gibco Invitrogen GmbH, Karlsruhe, Germany or DMEM, Sigma-Aldrich, Taufkirchen, Germany; rB1R cells: D-MEM/F12, Gibco Invitrogen, Karlsruhe, Germany) with 10 vol. % FBS (foetal bovine serum, Gibco Invitrogen GmbH, Karlsruhe, Germany or PAN Biotech GmbH, Aidenbach, Germany). On the following day the cells are loaded with 2.13 μM Fluo-4 (Molecular Probes Europe BV, Leiden, Netherlands) in HBSS buffer (Hank's buffered saline solution, Gibco Invitrogen GmbH, Karlsruhe, Germany) with 2.5 mM probenecid (Sigma-Aldrich, Taufkirchen, Germany) and 10 mM HEPES (Sigma-Aldrich, Taufkirchen, Germany) for 60 min at 37° C. […] Sigma-Aldrich, Taufkirchen, Germany), 5.6 mM glucose and 0.05% gelatine (Merck KGaA, Darmstadt, Germany) is added. After a further incubation of 20 minutes at room temperature, the plates are inserted into the FLIPR for Ca^2+ measurement. Alternatively they are washed with buffer A (15 mM HEPES, 80 mM NaCl, 5 mM KCl, 1.2 mM CaCl2, 0.7 mM MgSO4, 2 g/l glucose, 2.5 mM probenecid) and loaded with buffer A with added 2.5 μM Fluo-4 and 0.025% Pluronic F127 (Sigma-Aldrich, Taufkirchen, Germany). The cells are then washed twice with buffer A and incubated for 30 minutes with buffer A, which additionally contains 0.05% BSA and 0.05% gelatine, at room temperature and then used for Ca^2+ measurement in the FLIPR. The Ca^2+-dependent fluorescence is measured here before and after addition of substances (λex=488 nm, λem=540 nm). The quantification is performed by measuring the highest fluorescence intensity (FC, fluorescence counts) over time. The FLIPR protocol comprises two additions of substance. […] Lys-Des-[…] bradykinin>=50 nM; rB1R: […] Antagonists lead to a suppression of the Ca^2+ inflow. The % inhibition in comparison with the maximum achievable inhibition is calculated. The substances are added in varying concentrations in order to determine the IC50 value. Double or triple determinations (n=2 or n=3) are performed and these are repeated in at least one further independent experiment (N>=2).
`COc1cc(C)c(S(=O)(=O)Nc2ccc3ccn(CC(=O)N4CCN(CC5CCN(C)CC5)CC4)c3c2)c(C)c1` [G_CC-4, 4-Methoxy-2,6-dimethyl-N-[1-[2-[4-[(1-methyl-piperdin-4-yl)-methyl]-piperazin-1-yl]-2-oxo-ethyl]-1H-indol-6-yl]-benzenesulfonic acid amide]: the “B1R antagonism, rat [10 μM] % inhibition” value was 99%. Turning to `COc1cc(C)c(S(=O)(=O)Nc2cccc3ccn(CC(=O)N4CCN(CC5CCN(C)CC5)CC4)c23)c(C)c1` [G_CC-7, 4-Methoxy-2,6-dimethyl-N-[1-[2-[4-[(1-methyl-piperdin-4-yl)-methyl]-piperazin-1-yl]-2-oxo-ethyl]-1H-indol-7-yl]-benzenesulfonic acid amide], the “B1R antagonism, rat [10 μM] % inhibition” value was determined as 100%.

The assay is the same for the next values; noted with them: 10 μM test substance; CHO K1 cells with rat B1R; agonist Des-Arg9 bradykinin; % of maximum achievable inhibition; 10 µM.
`COc1cc(C)c(S(=O)(=O)Nc2cccc3ccn(CC(=O)N4CCC(Oc5ccncc5)CC4)c23)c(C)c1` [Compound G-03, 4-Methoxy-2,6-dimethyl-N-[1-[2-oxo-2-(4-pyridin-4-yloxy-piperidin-1-yl)-ethyl]-1H-indol-7-yl]-benzenesulfonic acid amide]: the “B1R antagonism, rat [10 μM] % inhibition” value was 90%.

The assay is the same for the next values; noted with them: CHO-K1, 10 μM test substance; CHO K1 cells with rat B1R; agonist Des-Arg9 bradykinin; % of maximum achievable inhibition; read-out: B1R antagonism, rat [10 μM] % inhibition.
One may read the inhibition as the share of the control response that was lost under treatment. `COc1cc(C)c(S(=O)(=O)Nc2ccc3ccn(CC(=O)N4CCN(C5CCN(C)CC5)CC4)c3c2)c(C)c1` [G_CC-1, 4-Methoxy-2,6-dimethyl-N-[1-[2-[4-(1-methyl-piperidin-4-yl)-piperazin-1-yl]-2-oxo-ethyl]-1H-indol-6-yl]-benzenesulfonic acid amide]: the inhibition at 10 µM was 62%. On to `COc1cc(C)c(S(=O)(=O)Nc2ccc3ccn(CC(=O)N4CCN(c5ncccn5)CC4)c3c2)c(C)c1` [G_CC-3, 4-Methoxy-2,6-dimethyl-N-[1-[2-oxo-2-(4-pyrimidin-2-yl-piperazin-1-yl)-ethyl]-1H-indol-6-yl]-benzenesulfonic acid amide], for which the inhibition at 10 µM worked out at 82%.

On to `COc1cc(C)c(S(=O)(=O)Nc2cccc3ccn(CC(=O)N4CCN(c5ccc(F)cc5)CC4)c23)c(C)c1` [G_CC-5, N-[1-[2-[4-(4-fluorophenyl)-piperazin-1-yl]-2-oxo-ethyl]-1H-indol-7-yl]-4-methoxy-2,6-dimethyl-benzenesulfonic acid amide], for which the inhibition at 10 µM was determined as 59%.

Take `COc1cc(C)c(S(=O)(=O)Nc2cccc3ccn(CC(=O)N4CCN(c5ncccn5)CC4)c23)c(C)c1` [G_CC-6, 4-Methoxy-2,6-dimethyl-N-[1-[2-oxo-2-(4-pyrimidin-2-yl-piperazin-1-yl)-ethyl]-1H-indol-7-yl]-benzenesulfonic acid amide]: the inhibition at 10 µM is 73%. On the same count and under the same terms, as for `COc1cc(C)c(S(=O)(=O)Nc2ccc3ccn(CC(=O)NCC4CCN(c5ccncc5)CC4)c3c2)c(C)c1` [G_CC-9, 2-[6-[[(4-Methoxy-2,6-dimethyl-phenyl)sulfonyl]amino]-1H-indol-1-yl]-N-[(1-pyridin-4-yl-piperidin-4-yl)-methyl]-acetamide], the figure is 65%; as for `COc1cc(C)c(S(=O)(=O)Nc2ccc3ccn(CC(=O)N4CCC5(CCN(Cc6ccccc6)C5)C4)c3c2)c(C)c1` (stereo not shown) [G_CC-10, N-[1-[2-(3-Benzyl-3,7-diazaspiro[4.4]nonan-7-yl)-2-oxo-ethyl]-1H-indol-6-yl]-4-methoxy-2,6-dimethyl-benzenesulfonic acid amide], 69%; as for `COc1cc(C)c(S(=O)(=O)Nc2ccc3ccn(CC(=O)N(C)CCCN4CCC(c5ccccc5)(N(C)C)CC4)c3c2)c(C)c1` [G_CC-11, N-[3-(4-Dimethylamino-4-phenyl-piperidin-1-yl)-propyl]-2-[6-[[(4-methoxy-2,6-dimethyl-phenyl)sulfonyl]amino]-1H-indol-1-yl]-N-methyl-acetamide], 87%. In the case of `COc1cc(C)c(S(=O)(=O)Nc2cccc3ccn(CC(=O)N4CCC5(CC4)CCN(c4ccc(F)cc4)C5=O)c23)c(C)c1` [G_CC-12, N-[1-[2-[3-(4-Fluorophenyl)-4-oxo-3,8-diazaspiro[4.5]decan-8-yl]-2-oxo-ethyl]-1H-indol-7-yl]-4-methoxy-2,6-dimethyl-benzenesulfonic acid amide], the inhibition at 10 µM was 58%. Regarding `COc1cc(C)c(S(=O)(=O)Nc2cccc3ccn(CC(=O)N4CCC5(CCN(Cc6ccccc6)C5)C4)c23)c(C)c1` (stereo not shown) [G_CC-13, N-[1-[2-(3-Benzyl-3,7-diazaspiro[4.4]nonan-7-yl)-2-oxo-ethyl]-1H-indol-7-yl]-4-methoxy-2,6-dimethyl-benzenesulfonic acid amide], the inhibition at 10 µM amounted to 58%.

For the compound `COc1cc(C)c(S(=O)(=O)Nc2cccc3ccn(CC(=O)N(C)CCCN4CCC(c5ccccc5)(N(C)C)CC4)c23)c(C)c1` [G_CC-14, N-[3-(4-Dimethylamino-4-phenyl-piperidin-1-yl)-propyl]-2-[7-[[(4-methoxy-2,6-dimethyl-phenyl)sulfonyl]amino]-1H-indol-1-yl]-N-methyl-acetamide], the inhibition at 10 µM turned out to be 86%.

For `Cc1cc(S(=O)(=O)Nc2ccc3ccn(CC(=O)N(C)CCCN4CCC(c5ccccc5)(N(C)C)CC4)c3c2)c(C)cc1Cl` [G_CC-15, 2-[6-[[(4-Chloro-2,5-dimethyl-phenyl)sulfonyl]amino]-1H-indol-1-yl]-N-[3-(4-dimethylamino-4-phenyl-piperidin-1-yl)-propyl]-N-methyl-acetamide], the inhibition at 10 µM turned out to be 65%. On the same count and under the same terms, as for `CN(CCCN1CCC(c2ccccc2)(N(C)C)CC1)C(=O)Cn1ccc2cccc(NS(=O)(=O)c3cccc4ccccc34)c21` [G_CC-16, N-[3-(4-Dimethylamino-4-phenyl-piperidin-1-yl)-propyl]-N-methyl-2-[7-[(naphthalen-1-ylsulfonyl)amino]-1H-indol-1-yl]-acetamide], the figure is 67%; as for `COc1cc(C)c(S(=O)(=O)Nc2cccc3ccn(CC(=O)NC4CCC(c5ccccc5)(N5CCC5)CC4)c23)c(C)c1` (stereo not shown) [G_CC-17, N-[4-(Azetidin-1-yl)-4-phenyl-cyclohexyl]-2-[7-[[(4-methoxy-2,6-dimethyl-phenyl)sulfonyl]amino]-1H-indol-1-yl]-acetamide], 52%; as for `COc1cc(C)c(S(=O)(=O)Nc2cccc3ccn(CC(=O)N(C)CCCN4CCC(c5cccs5)(N(C)C)CC4)c23)c(C)c1` [G_CC-18, N-[3-(4-Dimethylamino-4-thiophen-2-yl-piperidin-1-yl)-propyl]-2-[7-[[(4-methoxy-2,6-dimethyl-phenyl)sulfonyl]amino]-1H-indol-1-yl]-N-methyl-acetamide], 87%.

As to `COc1cc(C)c(S(=O)(=O)Nc2cccc3ccn(CC(=O)NCCN4CCC(c5cccs5)(N(C)C)CC4)c23)c(C)c1` [G_CC-19, N-[2-(4-Dimethylamino-4-thiophen-2-yl-piperidin-1-yl)-ethyl]-2-[7-[[(4-methoxy-2,6-dimethyl-phenyl)sulfonyl]amino]-1H-indol-1-yl]-acetamide], the inhibition at 10 µM was 68%. Still for that read-out and setting: as for `COc1cc(C)c(S(=O)(=O)Nc2cccc3ccn(CC(=O)N4CCC(c5cccs5)(N(C)C)CC4)c23)c(C)c1` [G_CC-20, N-[1-[2-(4-Dimethylamino-4-thiophen-2-yl-piperidin-1-yl)-2-oxo-ethyl]-1H-indol-7-yl]-4-methoxy-2,6-dimethyl-benzenesulfonic acid amide], the figure is 86%.
